Source: BindingDB's records for doi:10.1124/jpet.104.067884 (Sanofi-Synthelabo Recherche, 2004)

Tests used:
Cannabinoid receptor 2 = Cannabinoid receptor 2 (Homo sapiens, UniProt P34972)
Cannabinoid receptor 1 = Cannabinoid receptor 1 (Homo sapiens, UniProt P21554)
Cannabinoid receptor 1, sequence (P21554 whole entry): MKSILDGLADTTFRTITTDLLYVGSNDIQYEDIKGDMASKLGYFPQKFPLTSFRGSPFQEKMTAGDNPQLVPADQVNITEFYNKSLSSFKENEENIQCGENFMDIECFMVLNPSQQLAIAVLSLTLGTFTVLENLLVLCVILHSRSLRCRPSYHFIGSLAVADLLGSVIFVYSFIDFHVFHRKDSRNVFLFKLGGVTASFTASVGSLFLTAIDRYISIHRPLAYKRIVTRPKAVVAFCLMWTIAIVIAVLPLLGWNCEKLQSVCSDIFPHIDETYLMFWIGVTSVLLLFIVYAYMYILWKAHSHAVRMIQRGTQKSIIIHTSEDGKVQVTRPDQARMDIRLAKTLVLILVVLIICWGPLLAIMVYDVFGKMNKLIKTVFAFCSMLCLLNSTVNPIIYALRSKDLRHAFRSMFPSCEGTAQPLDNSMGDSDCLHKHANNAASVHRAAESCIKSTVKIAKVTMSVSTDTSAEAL

Cannabinoid receptor 2, sequence (P34972 whole entry): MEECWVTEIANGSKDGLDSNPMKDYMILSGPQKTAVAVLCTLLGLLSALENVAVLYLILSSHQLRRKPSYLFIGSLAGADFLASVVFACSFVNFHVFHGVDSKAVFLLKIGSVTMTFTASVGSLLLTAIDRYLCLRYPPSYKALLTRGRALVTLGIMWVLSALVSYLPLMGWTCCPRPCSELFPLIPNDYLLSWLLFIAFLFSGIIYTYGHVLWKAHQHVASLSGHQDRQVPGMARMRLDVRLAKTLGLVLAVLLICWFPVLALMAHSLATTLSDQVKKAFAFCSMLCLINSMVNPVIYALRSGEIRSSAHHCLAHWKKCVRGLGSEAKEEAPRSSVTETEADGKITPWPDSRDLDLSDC

CCc1c(C(=O)NN2CCCCC2)nn(-c2ccc(Cl)cc2Cl)c1-c1ccc(Br)cc1 [SR 147778] showed a Ki (Cannabinoid receptor 2) of 442 nM and a Ki (Cannabinoid receptor 1) of 3.5 nM.
